Reference: ChEMBL document CHEMBL1201862, “PubChem BioAssay data set” (2004)
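Briefly, cells in 96-well plates were exposed to five compound concentrations for 48 h, and endpoints were estimated by linear interpolation. GI50 is the concentration that inhibits growth by half.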 The source made the active and inactive calls. No stated cut-off is given here; in the data, active = GI50 up to about 1.1 µM and inactive = higher.

Legend:
Assay in all cases: inhibition of tumour cell growth, NCI panel, 48 h
MCF7 = system: MCF7
UO-31 = system: UO-31
BT-549 = system: BT-549
EKVX = system: EKVX
Malme-3M = system: Malme-3M
LOX IMVI = system: LOX IMVI
786-0 = system: 786-0
IGROV-1 = system: IGROV-1
ACHN = system: ACHN
SNB-19 = system: SNB-19
OVCAR-4 = system: OVCAR-4
SK-MEL-28 = system: SK-MEL-28
UACC-257 = system: UACC-257
NCI-H522 = system: NCI-H522
OVCAR-5 = system: OVCAR-5
SR = system: SR
MDA-MB-231 = system: MDA-MB-231
NCI/ADR-RES = system: NCI/ADR-RES
U-251 = system: U-251
PC-3 = system: PC-3

SMILES	GI50 (MCF7)	GI50 (UO-31)	GI50 (BT-549)	GI50 (EKVX)	GI50 (Malme-3M)	GI50 (LOX IMVI)	GI50 (786-0)	GI50 (IGROV-1)	GI50 (ACHN)	GI50 (SNB-19)	GI50 (OVCAR-4)	GI50 (SK-MEL-28)	GI50 (UACC-257)	GI50 (NCI-H522)	GI50 (OVCAR-5)	GI50 (SR)	GI50 (MDA-MB-231)	GI50 (NCI/ADR-RES)	GI50 (U-251)	GI50 (PC-3)
C=C1CC(COc2cc(=O)oc3ccccc23)(c2ccccc2)OC1=O (stereo not given)	0.413 µM (active)	6.64 µM (inactive)	1.53 µM (inactive)	6.27 µM (inactive)	1.33 µM (inactive)	1.45 µM (inactive)	1.51 µM (inactive)	1.51 µM (inactive)	2.5 µM (inactive)	16.4 µM (inactive)	2.12 µM (inactive)	2.41 µM (inactive)	1.99 µM (inactive)	1.56 µM (inactive)	8.07 µM (inactive)	6.32 µM (inactive)	3.61 µM (inactive)	2.96 µM (inactive)	9.4 µM (inactive)	1.95 µM (inactive)
CO[C@H]1C[C@H](O[C@H]2CC[C@]3(C=O)[C@H]4CC[C@]5(C)[C@@H](C6=CC(=O)OC6)CC[C@]5(O)[C@@H]4CC[C@]3(O)C2)O[C@H](C)[C@H]1O [CYMARIN]	0.463 µM (active)	0.308 µM (active)	0.207 µM (active)	0.175 µM (active)	0.225 µM (active)	0.184 µM (active)	0.137 µM (active)	0.448 µM (active)	0.0912 µM (active)	0.713 µM (active)	0.107 µM (active)	0.845 µM (active)	0.37 µM (active)	< 0.0393 µM (active)	0.478 µM (active)	0.409 µM (active)	1.14 µM (inactive)	0.257 µM (active)	0.314 µM (active)	0.203 µM (active)
COC(=O)CCCc1nc2ccccc2nc1/N=N/c1ccccc1	30.8 µM (inactive)	25.9 µM (inactive)	53.7 µM (inactive)	73.6 µM (inactive)	17.4 µM (inactive)	16.6 µM (inactive)	38.1 µM (inactive)	25.5 µM (inactive)	74 µM (inactive)	56 µM (inactive)	50.8 µM (inactive)	38.5 µM (inactive)	45.9 µM (inactive)	19.1 µM (inactive)	> 100 µM (inactive)	20.8 µM (inactive)	> 100 µM (inactive)	18.7 µM (inactive)	53.6 µM (inactive)	39.5 µM (inactive)
COC(=O)c1sc(=S)sc1SCc1cccc(CSc2sc(=S)sc2C(=O)OC)c1	> 100 µM (inactive)	> 100 µM (inactive)	26.9 µM (inactive)	56 µM (inactive)	> 100 µM (inactive)	> 100 µM (inactive)	33.4 µM (inactive)	60.7 µM (inactive)	28.8 µM (inactive)	26.8 µM (inactive)	> 100 µM (inactive)	> 100 µM (inactive)	> 100 µM (inactive)	> 100 µM (inactive)	> 100 µM (inactive)	> 100 µM (inactive)	36.6 µM (inactive)	> 100 µM (inactive)	25.3 µM (inactive)	> 100 µM (inactive)
C1=C(c2ccccc2)C(N2CCOCC2)Oc2ccccc21 (stereo not given)	> 100 µM (inactive)	87.7 µM (inactive)	45.3 µM (inactive)	> 100 µM (inactive)	> 100 µM (inactive)	> 100 µM (inactive)	> 100 µM (inactive)	> 100 µM (inactive)	> 100 µM (inactive)	> 100 µM (inactive)	> 100 µM (inactive)	> 100 µM (inactive)	> 100 µM (inactive)	> 100 µM (inactive)	> 100 µM (inactive)	> 100 µM (inactive)	> 100 µM (inactive)	79.8 µM (inactive)	> 100 µM (inactive)	77.4 µM (inactive)
COC(=O)C1=C(C)NC(C)=C(C(=O)OC)C1c1cccc(N=O)c1	18.4 µM (inactive)	8.38 µM (inactive)	17 µM (inactive)	20.1 µM (inactive)	15.4 µM (inactive)	17.4 µM (inactive)	16.7 µM (inactive)	17 µM (inactive)	14.5 µM (inactive)	75.5 µM (inactive)	13.1 µM (inactive)	16.7 µM (inactive)	16.6 µM (inactive)	3.18 µM (inactive)	18 µM (inactive)	5.41 µM (inactive)	14.4 µM (inactive)	22.5 µM (inactive)	17 µM (inactive)	17.8 µM (inactive)
C[C@H](CCC(=O)O)[C@H]1CC[C@H]2[C@@H]3C(=O)C[C@@H]4C[C@H](O)CC[C@]4(C)[C@H]3C[C@H](O)[C@]12C	> 100 µM (inactive)	> 100 µM (inactive)	> 100 µM (inactive)	> 100 µM (inactive)	> 100 µM (inactive)	> 100 µM (inactive)	> 100 µM (inactive)	> 100 µM (inactive)	> 100 µM (inactive)	> 100 µM (inactive)	> 100 µM (inactive)	> 100 µM (inactive)	> 100 µM (inactive)	> 100 µM (inactive)	> 100 µM (inactive)	> 100 µM (inactive)	> 100 µM (inactive)	> 100 µM (inactive)	> 100 µM (inactive)	> 100 µM (inactive)
O=C1NNC2NC(=O)C3(NN2C1=O)c1ccccc1-c1ccccc13 (stereo not given)	> 100 µM (inactive)	> 100 µM (inactive)	> 100 µM (inactive)	> 100 µM (inactive)	> 100 µM (inactive)	> 100 µM (inactive)	> 100 µM (inactive)	> 100 µM (inactive)	> 100 µM (inactive)	> 100 µM (inactive)	> 100 µM (inactive)	> 10 µM (inactive)	> 100 µM (inactive)	> 100 µM (inactive)	> 100 µM (inactive)	> 100 µM (inactive)	> 100 µM (inactive)	> 100 µM (inactive)	> 100 µM (inactive)	> 100 µM (inactive)
CC1NC(=O)c2c(-c3ccccc3)nn(-c3ccccc3)c2NC1=O (stereo not given)	> 100 µM (inactive)	> 100 µM (inactive)	> 100 µM (inactive)	> 100 µM (inactive)	> 100 µM (inactive)	> 100 µM (inactive)	> 100 µM (inactive)	> 100 µM (inactive)	> 100 µM (inactive)	> 100 µM (inactive)	> 100 µM (inactive)	> 100 µM (inactive)	> 100 µM (inactive)	> 100 µM (inactive)	> 100 µM (inactive)	> 100 µM (inactive)	> 100 µM (inactive)	> 100 µM (inactive)	> 100 µM (inactive)	> 100 µM (inactive)
Nc1nc(Cl)c2ncn(Cc3cccc(CCl)c3)c2n1	5.35 µM (inactive)	13.4 µM (inactive)	4.09 µM (inactive)	8.97 µM (inactive)	5.81 µM (inactive)	3.33 µM (inactive)	5.37 µM (inactive)	3.31 µM (inactive)	3.45 µM (inactive)	5.89 µM (inactive)	2.13 µM (inactive)	5.28 µM (inactive)	6.01 µM (inactive)	2.4 µM (inactive)	9.16 µM (inactive)	1.74 µM (inactive)	11 µM (inactive)	3.47 µM (inactive)	2.17 µM (inactive)	10.2 µM (inactive)
CC(=O)c1[nH]c(NCc2ccccc2)c(C(=S)Nc2ccccc2)c1N	19.3 µM (inactive)	0.452 µM (active)	23.5 µM (inactive)	27.1 µM (inactive)	19.7 µM (inactive)	17.4 µM (inactive)	17.3 µM (inactive)	0.317 µM (active)	29 µM (inactive)	34.3 µM (inactive)	26.4 µM (inactive)	24.2 µM (inactive)	24.2 µM (inactive)	0.0383 µM (active)	24.3 µM (inactive)	28.7 µM (inactive)	15.1 µM (inactive)	30.6 µM (inactive)	17.3 µM (inactive)	39.6 µM (inactive)
Nc1nc(Cl)cc(NCC2(CO)CC(=O)C2)n1	> 100 µM (inactive)	> 100 µM (inactive)	> 100 µM (inactive)	98.6 µM (inactive)	> 100 µM (inactive)	> 100 µM (inactive)	> 100 µM (inactive)	> 100 µM (inactive)	> 100 µM (inactive)	> 100 µM (inactive)	> 100 µM (inactive)	> 100 µM (inactive)	> 100 µM (inactive)	> 100 µM (inactive)	> 100 µM (inactive)	> 100 µM (inactive)	> 100 µM (inactive)	> 100 µM (inactive)	> 100 µM (inactive)	> 100 µM (inactive)
